Test results reported in ChEMBL document CHEMBL5365436, “Novel Amphibian Bowman-Birk-Like Inhibitor with Antioxidant and Anticoagulant Effects Ameliorates Pancreatitis Symptoms in Mice” (J Med Chem, 2023).
The source made the active and inactive calls. The rule behind the calls is not given here. Positions of bridges follow the written chain, without caps; N, C: chain ends. Residues, ends and D or L forms follow the SMILES beside them.

Columns and labels:
Mus musculus [1] = assay: Anti-inflammatory activity in L-arginine-induced acute pancreatitis in BALB/c mouse model assessed as reduction in serum amylase at 50 mg/kg preincubated with compound followed by L-Arg induction for 1 hr and measured after 24 hrs by automatic analyzer; format: functional, organism-based; conditions: time 25.0 hrs
Mus musculus [2] = assay: Anti-inflammatory activity in L-arginine-induced acute pancreatitis in BALB/c mouse model assessed as reduction in IL-6 level at 50 mg/kg preincubated with compound followed by L-Arg induction for 1 hr and measured after 24 hrs by ELISA method; format: functional, organism-based; conditions: time 25.0 hrs
Mus musculus [3] = assay: Anti-inflammatory activity in L-arginine-induced acute pancreatitis in BALB/c mouse model assessed as inhibition of trypsin activity at 50 mg/kg preincubated with compound followed by L-Arg induction for 1 hr and measured after 24 hrs; format: functional, organism-based; conditions: time 25.0 hrs
Mus musculus [4] = assay: Anti-inflammatory activity in L-arginine-induced acute pancreatitis in BALB/c mouse model assessed as reduction in necrosis in pancreas at 1.25 to 5 mg/kg preincubated with compound followed by L-Arg induction for 1 hr and measured after 24 hrs by H and E staining based analysis; format: functional, organism-based; conditions: dose 1.25-5 mg/kg, time 25.0 hrs
Mus musculus [5] = species: Mus musculus; assay: Anti-inflammatory activity in L-arginine-induced acute pancreatitis in BALB/c mouse model assessed as reduction in IL-6 level preincubated with compound followed by L-Arg induction for 1 hr and measured after 24 hrs by ELISA method; format: functional, organism-based; conditions: dose 1.25-5 mg/kg, time 25.0 hrs
Trypsin [6] = target: T1, Trypsin (Homo sapiens, UniProt P07477+P07478+P35030); assay: Binding affinity to trypsin (unknown origin) assessed as dissociation constant by surface plasmon resonance imaging method; format: protein assay
Mus musculus [7] = species: Mus musculus; assay: Antithrombotic activity in L-arginine-induced acute pancreatitis in BALB/c mouse model assessed as inhibition of thrombin induced platelet aggregation preincubated with compound followed by L-Arg induction for 1 hr and measured after 24 hrs by fluorescence based analysis; format: functional, organism-based; conditions: dose 12.5-50 µM, time 25.0 hrs
Mus musculus [8] = assay: Anti-inflammatory activity in L-arginine-induced acute pancreatitis in BALB/c mouse model assessed as inhibition of trypsin activity at 1.25 to 5 mg/kg preincubated with compound followed by L-Arg induction for 1 hr and measured after 24 hrs; format: functional, organism-based; conditions: dose 1.25-5 mg/kg, time 25.0 hrs
Mus musculus [9] = assay: Antioxidant activity in L-arginine-induced acute pancreatitis in BALB/c mouse model assessed as decrease in ROS accumulation at 1.25 to 5 mg/kg by DCFH-DA staining method; format: functional, organism-based; conditions: dose 1.25-5 mg/kg
Mus musculus [10] = assay: Anti-inflammatory activity in L-arginine-induced acute pancreatitis in BALB/c mouse model assessed as reduction in acinar cell necrosis in pancreas at 1.25 to 5 mg/kg preincubated with compound followed by L-Arg induction for 1 hr and measured after 24 hrs by H and E staining based analysis; format: functional, organism-based; conditions: dose 1.25-5 mg/kg, time 25.0 hrs
Trypsin [11] = target: T1, Trypsin; assay: Binding affinity to trypsin (unknown origin) assessed as inhibition constant by Lineweaver-Burk plot analysis; format: protein assay
Mus musculus [12] = assay: Anti-inflammatory activity in L-arginine-induced acute pancreatitis in BALB/c mouse model assessed as reduction in neutrophil infiltration in pancreas at 1.25 to 5 mg/kg preincubated with compound followed by L-Arg induction for 1 hr and measured after 24 hrs by H and E staining based analysis; format: functional, organism-based; conditions: dose 1.25-5 mg/kg, time 25.0 hrs
Mus musculus [13] = assay: Anti-inflammatory activity in L-arginine-induced acute pancreatitis in BALB/c mouse model assessed as reduction in hemorrhage in pancreas at 1.25 to 5 mg/kg preincubated with compound followed by L-Arg induction for 1 hr and measured after 24 hrs by H and E staining based analysis; format: functional, organism-based; conditions: dose 1.25-5 mg/kg, time 25.0 hrs
Mus musculus [14] = assay: Anti-inflammatory activity in L-arginine-induced acute pancreatitis in BALB/c mouse model assessed as decrease in platelet to lymphocyte ratio at 5 mg/kg preincubated with compound followed by L-Arg induction for 1 hr and measured after 24 hrs; format: functional, organism-based; conditions: time 25.0 hrs
Mus musculus [15] = assay: Antioxidant activity in L-arginine-induced acute pancreatitis in BALB/c mouse model assessed as reversal of SOD activity at 1.25 to 5 mg/kg by DCFH-DA staining method; format: functional, organism-based; conditions: dose 1.25-5 mg/kg
Mus musculus [16] = species: Mus musculus; assay: Anti-inflammatory activity in L-arginine-induced acute pancreatitis in BALB/c mouse model assessed as inhibition of increase in myeloperoxidase activity at preincubated with compound followed by L-Arg induction for 1 hr and measured after 24 hrs; format: functional, organism-based; conditions: dose 1.25-5 mg/kg, time 25.0 hrs
Mus musculus [17] = assay: Antioxidant activity in L-arginine-induced acute pancreatitis in BALB/c mouse model assessed as reversal of GSH level at 1.25 to 5 mg/kg by DCFH-DA staining method; format: functional, organism-based; conditions: dose 1.25-5 mg/kg
Mus musculus [18] = species: Mus musculus; assay: Antithrombotic activity in L-arginine-induced acute pancreatitis in BALB/c mouse model assessed as prolongation of plasma recalcification time preincubated with compound followed by L-Arg induction for 1 hr and measured after 24 hrs by fluorescence based analysis; format: functional, organism-based; conditions: dose 0.1-50 µM, time 25.0 hrs
Mus musculus [19] = species: Mus musculus; assay: Anti-inflammatory activity in L-arginine-induced acute pancreatitis in BALB/c mouse model assessed as reduction in serum amylase preincubated with compound followed by L-Arg induction for 1 hr and measured after 24 hrs by automatic analyzer; format: functional, organism-based; conditions: dose 1.25-5 mg/kg, time 25.0 hrs
Mus musculus [20] = assay: Anti-inflammatory activity in L-arginine-induced acute pancreatitis in BALB/c mouse model assessed as improvement in neutrophil level in spleen at 1.25 to 5 mg/kg preincubated with compound followed by L-Arg induction for 1 hr and measured after 24 hrs by flow cytometry analysis; format: functional, organism-based; conditions: dose 1.25-5 mg/kg, time 25.0 hrs
[21] = Antioxidant activity assessed as DPPH radical scavenging activity at 40 uM measured at 10 min by microplate reader analysis relative to control; format: functional
[22] = Antioxidant activity assessed as ABTS radical scavenging activity at 40 uM measured at 10 min by microplate reader analysis relative to control; format: functional
Mus musculus [23] = assay: Anti-inflammatory activity in L-arginine-induced acute pancreatitis in BALB/c mouse model assessed as decrease in neutrophil to lymphocyte ratio at 5 mg/kg preincubated with compound followed by L-Arg induction for 1 hr and measured after 24 hrs; format: functional, organism-based; conditions: time 25.0 hrs
Mus musculus [24] = assay: Anti-inflammatory activity in L-arginine-induced acute pancreatitis in BALB/c mouse model assessed as reduction in interstitial edema in pancreas at 1.25 to 5 mg/kg preincubated with compound followed by L-Arg induction for 1 hr and measured after 24 hrs by H and E staining based analysis; format: functional, organism-based; conditions: dose 1.25-5 mg/kg, time 25.0 hrs
Mus musculus [25] = assay: Antioxidant activity in L-arginine-induced acute pancreatitis in BALB/c mouse model assessed as decrease in MDA level at 1.25 to 5 mg/kg by DCFH-DA staining method; format: functional, organism-based; conditions: dose 1.25-5 mg/kg
Trypsin [26] = target: T1, Trypsin; assay: Inhibition of trypsin (unknown origin) assessed as inhibition of casein hydrolysis using S2238 as chromogenic substrate preincubated for 5 mins followed by substrate addition and measured after 11 mins by absorbance based analysis; format: protein assay; conditions: dose 0.3125-10 µM, time 16.0 min
Mus musculus [27] = assay: Antithrombotic activity in L-arginine-induced acute pancreatitis in BALB/c mouse model assessed as reduction in thrombosis by measuring fluorescence intensity at 5 mg/kg preincubated with compound followed by L-Arg induction for 1 hr and measured after 24 hrs by imaging based analysis (reference value: 24497.7); format: functional; conditions: time 25 hrs
[28] = Antioxidant activity assessed as ferric reducing capacity at 40 uM measured at 10 min by FRAP assay (reference value: 20.87 %); format: functional; parameters: scale not given: the % may be the effect or the level left
Mus musculus [29] = assay: Antithrombotic activity FeCl3-induced thrombosis in BALB/c mouse model assessed as carotid artery blood flow time at 5 mg/kg preincubated with compound followed by FeCl3 treatment for 1 hr and measured upto 12 mins by laser perfusion imaging method; format: functional; conditions: time 72 min, 1.2 h

## CC(=O)N[C@@H](CS)C(=O)O
Mus musculus [1]
  Activity: Active
Mus musculus [2]
  Activity: Active
Mus musculus [3]
  Activity: Active

## CC(C)C[C@H](NC(=O)[C@@H]1CSSC[C@H](NC(=O)CNC(=O)[C@H](CO)NC(=O)[C@H](CC(C)C)NC(=O)[C@@H](N)CO)C(=O)N[C@@H](Cc2c[nH]c3ccccc23)C(=O)N[C@@H]([C@@H](C)O)C(=O)N[C@@H](CCCCN)C(=O)N[C@@H](CO)C(=O)N[C@@H](Cc2ccccc2)C(=O)N2CCC[C@H]2C(=O)N[C@@H](CCCNC(=N)N)C(=O)N[C@@H](CCCCN)C(=O)N2CCC[C@H]2C(=O)N1)C(=O)N[C@@H](CCCNC(=N)N)C(=O)O (H-SLSGCWTKSFPRKPCLR-OH; disulfide 5-15)
Mus musculus [4]
  Activity: Active
Mus musculus [5]
  Activity: Dose-Dependent Effect
Trypsin [6]
  Kd: 1.93 µM
Mus musculus [7]
  Activity: Dose-Dependent Effect
Mus musculus [8]
  Activity: Active
Mus musculus [9]
  Activity: Active
Mus musculus [10]
  Activity: Active
Trypsin [11]
  Ki: 2.66 µM
Mus musculus [12]
  Activity: Active
Mus musculus [13]
  Activity: Active
Mus musculus [14]
  Activity: Active
Mus musculus [15]
  Activity: Active
Mus musculus [16]
  Activity: Dose-Dependent Effect
Mus musculus [17]
  Activity: Active
Mus musculus [18]
  Activity: Dose-Dependent Effect
Mus musculus [19]
  Activity: Dose-Dependent Effect
Mus musculus [20]
  Activity: Active
[21]
  Activity: 33.1%
[22]
  Activity: 58.8%
Mus musculus [23]
  Activity: Active
Mus musculus [24]
  Activity: Active
Mus musculus [25]
  Activity: Active
Trypsin [26]
  inhibition: Dose-Dependent Effect
Mus musculus [27]
  Flu intensity: 14936.4
[28]
  Activity: 66.5%
Mus musculus [29]
  Time: 12.46 min
